Assay results: article PMC5675611, “GZD824 suppresses the growth of human B cell precursor acute lymphoblastic leukemia cells by inhibiting the SRC kinase and PI3K/AKT pathways” (Oncotarget, 2016)

How the values were obtained:
Type in all cases: cell-based, human
[1] = test system: primary pre-B ALL cells; assay: Annexin V apoptosis of primary pre-B ALL cells
Protocol: Human pre-B ALL cells were obtained from spleen (SP) of sick pre-B ALL xenograft mice. Human CD45+ pre-B ALL cells, accounting for over 95% of the total SP mononuclear cells, were subjected in vitro assay. To determine the in vitro anticancer efficacy of GZD824, the drug was applied to fresh splenic pre-B ALL cells that were directly isolated from sick pre-B ALL xenograft mice in 3 independent experiments. In addition, fresh splenic cells were analyzed 24 hours post drug treatment. At this time point about 20% of the total cells in the vehicle group are apoptotic. […] All cells were cultured at 37°C in 5% carbon dioxide and a normal level of oxygen.
For identification of apoptotic cells among NALM6, SUPB15, and primary pre-B ALL cells, the GZD824-treated cells were stained with Annexin V Apoptosis Detection Kit (88-8007, BD ebioscience, CA, USA) according to the manufacturer's instructions (Affymetrix ebioscience, CA, USA) and then subjected to flow cytometric analysis by the Accuri™ C6 (BD Biosciences, CA, USA). For the in vitro drug sensitivity test in Figure 6A, the human CD45+ cells in spleen and bone marrow from sick mice account for over 95% of the total. We enriched human CD45+ cells in PB by MACS according to the manufacturer's instruction. After the enrichment, the purity of human CD45+ cell in PB reached 95%. The percentage of apoptotic cells was demarcated as the amount of both early and late facets of apoptosis (annexin V positive), as previously described. All data were analyzed with FlowJo software (Tree Star, Inc., Ashland, USA).

[2] = test system: phosphorylated AKT (Ser473); assay: Western blot of primary pre-B ALL cells; conditions: GZD824 1μM, IGF-1 10ng/ML, 24 hours
Protocol: (§1) Figure 6 GZD824 inhibits PI3K/AKT signaling in pre-B ALL cells A. Cells were harvested from PB, SP, and BM of P#2 xenograft mice and cultured with or without 1μM GZD824 for 24h. Bars represent the mean percentages of AnnexinV+ cells in each group. B. Primary pre-B ALL cells from spleen of P#1 xenograft mouse treated with DMSO, GZD824 (1μM), IGF-1 (10ng/ML), or both. Bars represent the mean percentages of AnnexinV+ cells in each group. C. Western blot analysis of NALM6 cells. Cells were treated with DMSO, GZD824 (1μM), or GZD824 (3μM) for 24 hours. Lysates were analyzed with antibodies against IRS1, phosphate AKT, and AKT. D. Western blot analysis of primary pre-B ALL cells. Primary cells treated with GZD824 (1μM), IGF-1 (10ng/ML), or both for 24 hours. Lysates were analyzed with antibodies against Irs1, phosphate AKT, and AKT.
(§2) For Western blot analysis, 30 μg of total protein extracts prepared from NALM6 or primary pre-B ALL cells from SP of PDX mice were separated on SDS-PAGE and transferred to a PVDF membrane (Bio-Rad, Hercules, CA, USA). The following commercially available antibodies and dilutions were used for Western blotting: human anti-STAT3 (ab119352, Abcam, UK), human anti-phospho-STAT3 (Y705) (ab76315, Abcam, UK), human anti-SRC (ab32102, Abcam, UK), human anti-phospho-SRC (Y419) (ab185617, Abcam, UK), human anti-RB (9313, Cell Signaling Technology, MA, USA), human anti-phospho–RB (Ser807/811) (8516, Cell Signaling Technology, MA, USA), human anti-C-myc (13987, Cell Signaling Technology, MA, USA), anti-AKT (pan) (4691P, Cell Signaling Technology, MA, USA), anti-phospho-AKT (Ser473) (4060P, Cell Signaling Technology, MA, USA), anti-IRS-1 (2390S, Cell Signaling Technology, MA, USA), and human anti–β-actin (4970, Cell Signaling Technology, MA, USA). Western blot analysis was performed with cell lines or primary pre-B ALL cells from SP following GZD824 treatment, and signal intensities were normalized to β-actin signals.

[3] = test system: IRS1; assay: Western blot of primary pre-B ALL cells; conditions: GZD824 1μM, IGF-1 10ng/ML, 24 hours
Protocol: as §1, §2

Compound: Cc1ccc(C(=O)Nc2ccc(CN3CCN(C)CC3)c(C(F)(F)F)c2)cc1C#Cc1cnc2[nH]ncc2c1 [GZD824]
- percentages of apoptotic cells ([1]; all five patient samples (P#1-P#5), 1μM, vs DMSO): significantly increased
- percentages of apoptotic pre-B ALL cells derived from BM compared to those from SP and PB ([1]; cells from P#2 xenograft mice, 1μM GZD824, 24 hours in vitro): significantly lower
- apoptotic levels, GZD824 alone vs both GZD824 and IGF-1 ([1]; primary pre-B ALL cells from spleen of P#1 xenograft mouse, GZD824 1μM, IGF-1 10ng/ML): much higher apoptotic levels
- levels of phosphorylated AKT (Ser473) [2]: reduction
- levels of IRS1 [3]: reduction
